The experiment concerns the target T1, human LPA1 (Homo sapiens, UniProt Q92633).
T1 construct: expressed in transfected cells; host or cells: Chinese hamster ovary (CHO) cells
Briefly: LPA1 functional antagonist assay (calcium flux). In kind it is cell-based. The settings on record: CHO cells overexpressing human LPA1; inhibition of calcium flux induced by 10 nM LPA; read-out: hLPA1 IC50. In outline: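 Dye-loaded CHO cells overexpressing human LPA1 (30 min, 37 °C) were preincubated 20 min at room temperature with compound (0.08 nM–5 μM; 0.5% DMSO; HBSS, 20 mM HEPES, 0.1% fatty-acid-free BSA), then stimulated with 10 nM LPA. IC50 is the concentration inhibiting 50% of LPA-induced calcium flux, from a 4-parameter logistic fit.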
T1 sequence (Q92633 whole entry): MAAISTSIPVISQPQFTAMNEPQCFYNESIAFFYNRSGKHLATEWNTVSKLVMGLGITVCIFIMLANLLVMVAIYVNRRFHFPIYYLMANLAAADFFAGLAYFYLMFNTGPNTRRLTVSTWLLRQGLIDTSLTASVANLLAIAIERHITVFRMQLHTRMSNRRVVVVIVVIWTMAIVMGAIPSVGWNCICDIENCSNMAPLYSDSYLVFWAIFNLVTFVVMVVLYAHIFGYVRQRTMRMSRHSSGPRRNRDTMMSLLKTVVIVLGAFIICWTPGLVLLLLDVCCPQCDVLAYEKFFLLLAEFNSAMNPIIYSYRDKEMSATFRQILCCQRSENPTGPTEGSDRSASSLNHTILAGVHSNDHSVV
For the compound `CCCc1ncnc(NCc2c(-c3ccc(O[C@H]4CCC[C@H](C(=O)O)C4)cn3)nnn2C)n1` [Example 221, (1S,3S)-3-((6-(1-methyl-5-(((4-propyl-1,3,5-triazin-2-yl)amino)methyl)-1H-1,2,3-triazol-4-yl)pyridin-3-yl)oxy) cyclohexane-1-carboxylic acid], the IC50 – broadly, the point on the concentration scale where inhibition reaches its midpoint – came out at 63 nM.
As for `CCCCc1ncnc(NCc2c(-c3ccc(O[C@H]4CCC[C@H](C(=O)O)C4)cn3)nnn2C)n1` [Example 222, (1S,3S)-3-((6-(5-(((4-butyl-1,3,5-triazin-2-yl)amino)methyl)-1-methyl-1H-1,2,3-triazol-4-yl)pyridin-3-yl)oxy)cyclohexane-1-carboxylic acid], the figure is 68 nM.
Regarding `Cn1nnc(-c2ccc(O[C@H]3CCC[C@H](C(=O)O)C3)cn2)c1CNc1ncnc(C2CC2)n1` [Example 223, (1S,3S)-3-((6-(5-(((4-cyclopropyl-1,3,5-triazin-2-yl)amino)methyl)-1-methyl-1H-1,2,3-triazol-4-yl)pyridin-3-yl)oxy)cyclohexane-1-carboxylic acid], the IC50 is 211 nM.
For `CCc1ncnc(NCc2c(-c3ccc(O[C@H]4CCC[C@H](C(=O)O)C4)cn3)nnn2C)n1` [Example 224, (1S,3S)-3-((6-(5-(((4-ethyl-1,3,5-triazin-2-yl)amino)methyl)-1-methyl-1H-1,2,3-triazol-4-yl)pyridin-3-yl)oxy) cyclohexane-1-carboxylic acid] the value was 813 nM.
As to `CCc1nc(CC)nc(NCc2c(-c3ccc(O[C@H]4CCC[C@H](C(=O)O)C4)cn3)nnn2C)n1` [Example 225, (1S,3S)-3-((6-(5-(((4,6-diethyl-1,3,5-triazin-2-yl)amino)methyl)-1-methyl-1H-1,2,3-triazol-4-yl)pyridin-3-yl)oxy)cyclohexane-1-carboxylic acid], the IC50 was determined as 789 nM.
For `Cc1nc(-c2nnn(C)c2Nc2cccc(Cc3ccccc3)n2)ccc1O[C@H]1CCC[C@H](C(=O)O)C1` [Example 226, (1S,3S)-3-((6-(5-((6-benzylpyridin-2-yl)amino)-1-methyl-1H-1,2,3-triazol-4-yl)-2-methylpyridin-3-yl)oxy)cyclohexane-1-carboxylicacid], the concentration for half-maximal inhibition (IC50) stood at 19 nM.
As for `Cc1nc(-c2nnn(C)c2Nc2nccc(OC3CC3)n2)ccc1O[C@H]1CCC[C@H](C(=O)O)C1` [Example 227, (1S,3S)-3-((6-(5-((4-cyclopropoxypyrimidin-2-yl)amino)-1-methyl-1H-1,2,3-triazol-4-yl)-2-methylpyridin-3-yl)oxy)cyclohexane-1-carboxylic acid], the figure is 215 nM.
On to `Cc1nc(-c2nnn(C)c2Nc2ccnc(OC3CC3)n2)ccc1O[C@H]1CCC[C@H](C(=O)O)C1` [Example 228, (1S,3S)-3-((6-(5-((2-cyclopropoxypyrimidin-4-yl)amino)-1-methyl-1H-1,2,3-triazol-4-yl)-2-methylpyridin-3-yl)oxy)cyclohexane-1-carboxylic acid], for which the IC50 came out at 215 nM.
For `CCOc1ccnc(Nc2c(-c3ccc(O[C@H]4CCC[C@H](C(=O)O)C4)c(C)n3)nnn2C)n1` [Example 229, (1S,3S)-3-((6-(5-((4-ethoxypyrimidin-2-yl)amino)-1-methyl-1H-1,2,3-triazol-4-yl)-2-methylpyridin-3-yl)oxy)cyclohexane-1-carboxylic acid] the value was 165 nM.
For `CCCc1cccc(Nc2c(-c3ccc(O[C@H]4CCC[C@H](C(=O)O)C4)c(C)n3)nnn2C)n1` [Example 230, (1S,3S)-3-((2-methyl-6-(1-methyl-5-((6-propylpyridin-2-yl)amino)-1H-1,2,3-triazol-4-yl)pyridin-3-yl)oxy) cyclohexane-1-carboxylic acid] the value was 11 nM; for `Cc1nc(-c2nnn(C)c2Nc2cccc(C3CC3)n2)ccc1O[C@H]1CCC[C@H](C(=O)O)C1` [Example 231, (1S,3S)-3-((6-(5-((6-cyclopropyl-pyridin-2-yl)amino)-1-methyl-1H-1,2,3-triazol-4-yl)-2-methylpyridin-3-yl)oxy)cyclohexane-1-carboxylic acid], 21 nM; for `Cc1nc(-c2nnn(C)c2Nc2nccc(OCC3CC3)n2)ccc1O[C@H]1CCC[C@H](C(=O)O)C1` [Example 232, (1S,3S)-3-((6-(5-((4-(cyclopropyl-methoxy)pyrimidin-2-yl)amino)-1-methyl-1H-1,2,3-triazol-4-yl)-2-methylpyridin-3-yl)oxy)cyclohexane-1-carboxylic acid], 64 nM.
For `Cc1nc(-c2nnn(C)c2Nc2ccnc(OCC3CC3)n2)ccc1O[C@H]1CCC[C@H](C(=O)O)C1` [Example 233, (1S,3S)-3-((6-(5-((2-(cyclopropyl-methoxy)pyrimidin-4-yl)amino)-1-methyl-1H-1,2,3-triazol-4-yl)-2-methylpyridin-3-yl)oxy)cyclohexane-1-carboxylic acid] the value was 392 nM; for `Cc1nc(-c2nnn(C)c2Nc2cc(C3CC3)ccn2)ccc1O[C@H]1CCC[C@H](C(=O)O)C1` [Example 234, (1S,3S)-3-((6-(5-((4-cyclopropyl-pyridin-2-yl)amino)-1-methyl-1H-1,2,3-triazol-4-yl)-2-methylpyridin-3-yl)oxy)cyclohexane-1-carboxylic acid], 88 nM.
`CCCc1ccnc(Nc2c(-c3ccc(O[C@H]4CCC[C@H](C(=O)O)C4)c(C)n3)nnn2C)n1` [Example 235, (1S,3S)-3-((2-methyl-6-(1-methyl-5-((4-propylpyrimidin-2-yl)amino)-1H-1,2,3-triazol-4-yl)pyridin-3-yl)oxy) cyclohexane-1-carboxylic acid]: the IC50 turned out to be 23 nM.
For `CCCCc1cccc(Nc2c(-c3ccc(O[C@H]4CCC[C@H](C(=O)O)C4)c(C)n3)nnn2C)n1` [Example 236, (1S,3S)-3-((6-(5-((6-butylpyridin-2-yl)amino)-1-methyl-1H-1,2,3-triazol-4-yl)-2-methylpyridin-3-yl)oxy)cyclohexane-1-carboxylic acid] the value was 10 nM; for `Cc1nc(-c2nnn(C)c2Nc2cccc(OCc3ccccc3)n2)ccc1O[C@H]1CCC[C@H](C(=O)O)C1` [Example 237, (1S,3S)-3-((6-(5-((6-(benzyloxy)pyridin-2-yl)amino)-1-methyl-1H-1,2,3-triazol-4-yl)-2-methylpyridin-3-yl)oxy)cyclohexane-1-carboxylic acid], 55 nM.
`CCCOc1nccc(Nc2c(-c3ccc(O[C@H]4CCC[C@H](C(=O)O)C4)c(C)n3)nnn2C)n1` [Example 238, (1S,3S)-3-((2-methyl-6-(1-methyl-5-((2-propoxypyrimidin-4-yl)amino)-1H-1,2,3-triazol-4-yl)pyridin-3-yl)oxy)cyclohexane-1-carboxylic acid]: the IC50 came to 53 nM.
As to `CCCOc1ccnc(Nc2c(-c3ccc(O[C@H]4CCC[C@H](C(=O)O)C4)c(C)n3)nnn2C)n1` [Example 239, (1S,3S)-3-((2-methyl-6-(1-methyl-5-((4-propoxypyrimidin-2-yl)amino)-1H-1,2,3-triazol-4-yl)pyridin-3-yl)oxy) cyclohexane-1-carboxylic acid], the IC50 was 50 nM.
Consider `CCOc1cccc(Nc2c(-c3ccc(O[C@H]4CCC[C@H](C(=O)O)C4)c(C)n3)nnn2C)n1` [Example 240, (1S,3S)-3-((6-(5-((6-ethoxypyridin-2-yl)amino)-1-methyl-1H-1,2,3-triazol-4-yl)-2-methylpyridin-3-yl)oxy) cyclohexane-1-carboxylic acid], for which the IC50 worked out at 57 nM.
For `Cc1nc(-c2nnn(C)c2Nc2nccc(C(C)C)n2)ccc1O[C@H]1CCC[C@H](C(=O)O)C1` [Example 241, (1S,3S)-3-((6-(5-((4-isopropyl-pyrimidin-2-yl)amino)-1-methyl-1H-1,2,3-triazol-4-yl)-2-methylpyridin-3-yl)oxy)cyclohexane-1-carboxylic acid] the value was 66 nM; for `CCCOc1cccc(Nc2c(-c3ccc(O[C@H]4CCC[C@H](C(=O)O)C4)c(C)n3)nnn2C)n1` [Example 242, (1S,3S)-3-((2-methyl-6-(1-methyl-5-((6-propoxypyridin-2-yl)amino)-1H-1,2,3-triazol-4-yl)pyridin-3-yl)oxy) cyclohexane-1-carboxylic acid], 11 nM.
As for `Cn1nnc(-c2ccc(O[C@H]3CCC[C@H](C(=O)O)C3)cn2)c1Nc1nccc(OCC2CC2)n1` [Example 243, (1S,3S)-3-((6-(5-((4-(cyclopropyl-methoxy)pyrimidin-2-yl)amino)-1-methyl-1H-1,2,3-triazol-4-yl)pyridin-3-yl)oxy)cyclohexane-1-carboxylic acid], the IC50 worked out at 122 nM.
Regarding `CCCc1cccc(Nc2c(-c3ccc(O[C@H]4CCC[C@H](C(=O)O)C4)cn3)nnn2C)n1` [Example 244, (1S,3S)-3-((6-(1-methyl-5-((6-propylpyridin-2-yl)amino)-1H-1,2,3-triazol-4-yl)pyridin-3-yl)oxy) cyclohexane-1-carboxylic acid], the IC50 is 43 nM.
As for `CCCCc1cccc(Nc2c(-c3ccc(O[C@H]4CCC[C@H](C(=O)O)C4)cn3)nnn2C)n1` [Example 245, (1S,3S)-3-((6-(5-((6-butylpyridin-2-yl)amino)-1-methyl-1H-1,2,3-triazol-4-yl)pyridin-3-yl)oxy)cyclohexane-1-carboxylic acid], the figure is 32 nM.
In the case of `CCCOc1ccnc(Nc2c(-c3ccc(O[C@H]4CCC[C@H](C(=O)O)C4)cn3)nnn2C)n1` [Example 246, (1S,3S)-3-((6-(1-methyl-5-((4-propoxypyrimidin-2-yl)amino)-1H-1,2,3-triazol-4-yl)pyridin-3-yl)oxy) cyclohexane-1-carboxylic acid], the IC50 was 225 nM.
As for `CCCc1ccnc(Nc2c(-c3ccc(O[C@H]4CCC[C@H](C(=O)O)C4)cn3)nnn2C)n1` [Example 247, (1S,3S)-3-((6-(1-methyl-5-((4-propylpyrimidin-2-yl)amino)-1H-1,2,3-triazol-4-yl)pyridin-3-yl)oxy) cyclohexane-1-carboxylic acid], the IC50 is 318 nM.

The record behind these values is patent US11267800B2, “Cyclohexyl acid triazole azines as LPA antagonists” (BRISTOL-MYERS SQUIBB COMPANY, priority 2017, dated 2022).
